Data taken from US20240270762A1, “PENICILLIN-BINDING PROTEIN INHIBITORS” (priority 2021, published 2024).
pIC50: −log10 of the molar value.

Target: T1, PBP3 from Acinetobacter baumannii (ATCC 19606) (Acinetobacter baumannii, UniProt A0ABX6CK25)
T1 sequence (A0ABX6CK25 64-610): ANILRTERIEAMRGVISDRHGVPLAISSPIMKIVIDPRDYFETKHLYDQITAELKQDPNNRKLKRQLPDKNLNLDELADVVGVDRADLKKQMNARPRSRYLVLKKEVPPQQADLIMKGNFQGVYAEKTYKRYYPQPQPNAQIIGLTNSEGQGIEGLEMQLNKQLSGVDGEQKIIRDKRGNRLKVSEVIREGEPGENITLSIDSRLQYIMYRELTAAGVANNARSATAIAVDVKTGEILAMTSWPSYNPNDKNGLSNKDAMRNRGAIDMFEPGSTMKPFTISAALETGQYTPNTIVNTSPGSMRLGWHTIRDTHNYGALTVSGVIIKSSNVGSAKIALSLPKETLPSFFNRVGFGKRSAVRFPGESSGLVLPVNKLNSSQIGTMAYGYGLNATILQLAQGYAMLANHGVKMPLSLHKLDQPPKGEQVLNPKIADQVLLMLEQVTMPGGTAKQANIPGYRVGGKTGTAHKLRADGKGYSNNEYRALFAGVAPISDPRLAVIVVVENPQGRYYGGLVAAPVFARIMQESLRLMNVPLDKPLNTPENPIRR
Assay: Bocillin-FL fluorescence polarization competition binding, A. baumannii PBP3
Settings: fluorescence polarization competition binding assay using Bocillin-FL; read-out: A. baumannii PBP3 Potency
In short: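 Purified PBP was preincubated with inhibitor (E. coli PBP3 1.5 μM, 30 min; P. aeruginosa PBP3 0.75 μM, A. baumannii PBP3 0.2 μM and PBP1a 1 μM, 15 min), then Bocillin-FL (0.1 μM; 0.05 μM for PBP1a) added and FP read up to 60 min. EC50 = 50% loss of bound probe.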

Compound	pIC50
O=C(NCCN1CCN(C(=O)NC(C(=O)N[C@H]2Cc3ccc(F)c(C(=O)O)c3OB2O)c2cc(F)c(O)c(O)c2Cl)C1=O)Nc1cccc(O)c1 (stereo partly drawn) [Example 249, (3R)-3-(2-(2-chloro-5-fluoro-3,4-dihydroxyphenyl)-2-(3-(2-(3-(3-hydroxyphenyl)ureido)ethyl)-2-oxoimidazolidine-1-carboxamido)acetamido)-7-fluoro-2-hydroxy-3,4-dihydro-2H-benzo[e][1,2]oxaborinine-8-carboxylic acid]	> 5.00
O=C(NCCN1CCN(C(=O)NC(C(=O)N[C@H]2Cc3ccc(F)c(C(=O)O)c3OB2O)c2cc(F)c(O)c(O)c2Cl)C1=O)Nc1ccncc1 (stereo partly drawn) [Example 250, (3R)-3-(2-(2-chloro-5-fluoro-3,4-dihydroxyphenyl)-2-(2-oxo-3-(2-(3-(pyridin-4-yl)ureido)ethyl)imidazolidine-1-carboxamido)acetamido)-7-fluoro-2-hydroxy-3,4-dihydro-2H-benzo[e][1,2]oxaborinine-8-carboxylic acid]	> 5.00
O=C(NCCN1CCN(C(=O)NC(C(=O)N[C@H]2Cc3ccc(F)c(C(=O)O)c3OB2O)c2cc(F)c(O)c(O)c2Cl)C1=O)Nc1cccnc1 (stereo partly drawn) [Example 251, (3R)-3-(2-(2-chloro-5-fluoro-3,4-dihydroxyphenyl)-2-(2-oxo-3-(2-(3-(pyridin-3-yl)ureido)ethyl)imidazolidine-1-carboxamido)acetamido)-7-fluoro-2-hydroxy-3,4-dihydro-2H-benzo[e][1,2]oxaborinine-8-carboxylic acid]	> 5.00
O=C(NCCCN1CCN(C(=O)N[C@H](C(=O)N[C@H]2Cc3ccc(F)c(C(=O)O)c3OB2O)c2cc(F)c(O)c(O)c2Cl)C1=O)c1ccccc1 [Example 252, (R)-3-((S)-2-(3-(3-benzamidopropyl)-2-oxoimidazolidine-1-carboxamido)-2-(2-chloro-5-fluoro-3,4-dihydroxyphenyl)acetamido)-7-fluoro-2-hydroxy-3,4-dihydro-2H-benzo[e][1,2]oxaborinine-8-carboxylic acid]	3.60 to 4.30
O=C(NCCCN1CCN(C(=O)N[C@@H](C(=O)N[C@H]2Cc3ccc(F)c(C(=O)O)c3OB2O)c2cc(F)c(O)c(O)c2Cl)C1=O)c1ccccc1 [Example 253, (R)-3-((R)-2-(3-(3-benzamidopropyl)-2-oxoimidazolidine-1-carboxamido)-2-(2-chloro-5-fluoro-3,4-dihydroxyphenyl)acetamido)-7-fluoro-2-hydroxy-3,4-dihydro-2H-benzo[e][1,2]oxaborinine-8-carboxylic acid]	> 5.00
O=C(NCCCN1CCN(C(=O)N[C@H](C(=O)N[C@H]2Cc3ccc(F)c(C(=O)O)c3OB2O)c2cc(F)c(O)c(O)c2Cl)C1=O)c1cccc(O)c1 [Example 254, (R)-3-((S)-2-(2-chloro-5-fluoro-3,4-dihydroxyphenyl)-2-(3-(3-(3-hydroxybenzamido)propyl)-2-oxoimidazolidine-1-carboxamido)acetamido)-7-fluoro-2-hydroxy-3,4-dihydro-2H-benzo[e][1,2]oxaborinine-8-carboxylic acid]	4.30 to 5.00
O=C(NCCCN1CCN(C(=O)N[C@@H](C(=O)N[C@H]2Cc3ccc(F)c(C(=O)O)c3OB2O)c2cc(F)c(O)c(O)c2Cl)C1=O)c1cccc(O)c1 [Example 255, (R)-3-((R)-2-(2-chloro-5-fluoro-3,4-dihydroxyphenyl)-2-(3-(3-(3-hydroxybenzamido)propyl)-2-oxoimidazolidine-1-carboxamido)acetamido)-7-fluoro-2-hydroxy-3,4-dihydro-2H-benzo[e][1,2]oxaborinine-8-carboxylic acid]	> 5.00
O=C(NCCCN1CCN(C(=O)NC(C(=O)N[C@H]2Cc3ccc(F)c(C(=O)O)c3OB2O)c2cc(F)c(O)c(O)c2Cl)C1=O)c1ccncc1 (stereo partly drawn) [Example 256, (3R)-3-(2-(2-chloro-5-fluoro-3,4-dihydroxyphenyl)-2-(3-(3-(isonicotinamido)propyl)-2-oxoimidazolidine-1-carboxamido)acetamido)-7-fluoro-2-hydroxy-3,4-dihydro-2H-benzo[e][1,2]oxaborinine-8-carboxylic acid]	> 5.00
O=C(NCCCN1CCN(C(=O)NC(C(=O)N[C@H]2Cc3ccc(F)c(C(=O)O)c3OB2O)c2cc(F)c(O)c(O)c2Cl)C1=O)c1nccs1 (stereo partly drawn) [Example 257, (3R)-3-(2-(2-chloro-5-fluoro-3,4-dihydroxyphenyl)-2-(2-oxo-3-(3-(thiazole-2-carboxamido)propyl)imidazolidine-1-carboxamido)acetamido)-7-fluoro-2-hydroxy-3,4-dihydro-2H-benzo[e][1,2]oxaborinine-8-carboxylic acid]	> 5.00
O=C(NCCCN1CCN(C(=O)N[C@@H](C(=O)N[C@H]2Cc3ccc(F)c(C(=O)O)c3OB2O)c2cc(F)c(O)c(O)c2Cl)C1=O)Nc1cccc(O)c1 [Example 258, (R)-3-((R)-2-(2-chloro-5-fluoro-3,4-dihydroxyphenyl)-2-(3-(3-(3-(3-hydroxyphenyl)ureido)propyl)-2-oxoimidazolidine-1-carboxamido)acetamido)-7-fluoro-2-hydroxy-3,4-dihydro-2H-benzo[e][1,2]oxaborinine-8-carboxylic acid]	> 5.00
O=C(NCCCN1CCN(C(=O)NC(C(=O)N[C@H]2Cc3ccc(F)c(C(=O)O)c3OB2O)c2cc(F)c(O)c(O)c2Cl)C1=O)Nc1cccnc1 (stereo partly drawn) [Example 259, (3R)-3-(2-(2-chloro-5-fluoro-3,4-dihydroxyphenyl)-2-(2-oxo-3-(3-(3-(pyridin-3-yl)ureido)propyl)imidazolidine-1-carboxamido)acetamido)-7-fluoro-2-hydroxy-3,4-dihydro-2H-benzo[e][1,2]oxaborinine-8-carboxylic acid]	> 5.00
O=C(NCCS(=O)(=O)N1CCN(C(=O)NC(C(=O)N[C@H]2Cc3ccc(F)c(C(=O)O)c3OB2O)c2cc(F)c(O)c(O)c2Cl)C1=O)c1ccccc1 (stereo partly drawn) [Example 260, (3R)-3-(2-(3-((2-benzamidoethyl)sulfonyl)-2-oxoimidazolidine-1-carboxamido)-2-(2-chloro-5-fluoro-3,4-dihydroxyphenyl)acetamido)-7-fluoro-2-hydroxy-3,4-dihydro-2H-benzo[e][1,2]oxaborinine-8-carboxylic acid]	> 5.00
O=C(NCCS(=O)(=O)N1CCN(C(=O)NC(C(=O)N[C@H]2Cc3ccc(F)c(C(=O)O)c3OB2O)c2cc(F)c(O)c(O)c2Cl)C1=O)c1cccc(O)c1 (stereo partly drawn) [Example 261, (3R)-3-(2-(2-chloro-5-fluoro-3,4-dihydroxyphenyl)-2-(3-((2-(3-hydroxybenzamido)ethyl)sulfonyl)-2-oxoimidazolidine-1-carboxamido)acetamido)-7-fluoro-2-hydroxy-3,4-dihydro-2H-benzo[e][1,2]oxaborinine-8-carboxylic acid]	> 5.00
O=C(NCCS(=O)(=O)N1CCN(C(=O)NC(C(=O)N[C@H]2Cc3ccc(F)c(C(=O)O)c3OB2O)c2cc(F)c(O)c(O)c2Cl)C1=O)c1cccnc1 (stereo partly drawn) [Example 262, (3R)-3-(2-(2-chloro-5-fluoro-3,4-dihydroxyphenyl)-2-(3-((2-(nicotinamido)ethyl)sulfonyl)-2-oxoimidazolidine-1-carboxamido)acetamido)-7-fluoro-2-hydroxy-3,4-dihydro-2H-benzo[e][1,2]oxaborinine-8-carboxylic acid]	> 5.00
O=C(NCCS(=O)(=O)N1CCN(C(=O)N[C@H](C(=O)N[C@H]2Cc3ccc(F)c(C(=O)O)c3OB2O)c2cc(F)c(O)c(O)c2Cl)C1=O)c1nccs1 [Example 263, (R)-3-((S)-2-(2-chloro-5-fluoro-3,4-dihydroxyphenyl)-2-(2-oxo-3-((2-(thiazole-2-carboxamido)ethyl)sulfonyl)imidazolidine-1-carboxamido)acetamido)-7-fluoro-2-hydroxy-3,4-dihydro-2H-benzo[e][1,2]oxaborinine-8-carboxylic acid]	4.30 to 5.00
O=C(NCCS(=O)(=O)N1CCN(C(=O)N[C@@H](C(=O)N[C@H]2Cc3ccc(F)c(C(=O)O)c3OB2O)c2cc(F)c(O)c(O)c2Cl)C1=O)c1nccs1 [Example 264, (R)-3-((R)-2-(2-chloro-5-fluoro-3,4-dihydroxyphenyl)-2-(2-oxo-3-((2-(thiazole-2-carboxamido)ethyl)sulfonyl)imidazolidine-1-carboxamido)acetamido)-7-fluoro-2-hydroxy-3,4-dihydro-2H-benzo[e][1,2]oxaborinine-8-carboxylic acid]	> 5.00
O=C(O)c1c(F)ccc2c1OB(O)[C@@H](NC(=O)C(NC(=O)N1CCN(S(=O)(=O)CCNC(=O)[C@@H]3CCCN3)C1=O)c1cc(F)c(O)c(O)c1Cl)C2 (stereo partly drawn) [Example 265, (3R)-3-(2-(2-chloro-5-fluoro-3,4-dihydroxyphenyl)-2-(2-oxo-3-((2-((S)-pyrrolidine-2-carboxamido)ethyl)sulfonyl)imidazolidine-1-carboxamido)acetamido)-7-fluoro-2-hydroxy-3,4-dihydro-2H-benzo[e][1,2]oxaborinine-8-carboxylic acid]	> 5.00
